Assay results reported in patent US20160206580A1, “[…] LIPOSOME FORMULATIONS OF TRANEXAMIC ACID” (Pacira Pharmaceuticals, Inc., priority 2015, published 2016).
Where two headings read alike, the source gives them in different places.

Columns and labels:
beagle dog = test: Evaluation of toxicity of subcutaneous administration; type: in vivo; conditions: sc
Description: (§1) The objectives of this study were to determine the potential toxicity of TXA formulations, when given by subcutaneous injection to the beagle dog and to evaluate the potential reversibility of any findings, in comparison to the Reference Control Item, Tranexamic acid. In addition, the toxicokinetic profiles were determined.
21 male and 21 female beagle dogs were used in this study. The animals were from 6 to 7 months old and weighed between 7.5 and 9.8 kg (males) and 6.0 and 8.2 kg (females) at initiation of dosing.
(§2) The Test, Reference Control and Reference Items were administered to the appropriate animals via subcutaneous injection into the scapular and mid-dorsal areas on Days 1, 4, 7, and 10. The dose volume for each animal was based on the most recent body weight measurement. The volume for each dose was administered using a syringe/needle over one injection. Injection sites were rotated between two delimited sites (and the same site for all animals on a given day). Dosing area was shaved as needed and injection sites were marked with a pen (target area of 5 cm×5 cm). The first dosing site was in the mid-scapular region of the back and the second dosing site was caudal to the first site in the mid-dorsum region.
Blood was collected from the jugular vein. Urine was collected overnight from individually housed animals. […]

[1] = Toxicokinetics of TXA in plasma after subcutaneous injection; type: in vivo, beagle dog
Description: as §1, §2
Blood was collected from the jugular vein (or cephalic vein) from all animals in lithium heparin-containing tubes.
Samples were mixed gently and placed on crushed wet ice until centrifugation, which was carried out as soon as practical. The samples were centrifuged for 10 minutes in a refrigerated centrifuge (set to maintain the temperature at 4° C.) at 2700 rpm. The resultant plasma was separated, transferred to uniquely labeled clear polypropylene tubes, and frozen immediately over dry ice and transferred to a freezer set to maintain −80° C.
Plasma samples were analyzed for concentration of the tranexamic acid using a validated analytical procedure.
Toxicokinetic parameters were generated from the test item (tranexamic acid) individual concentrations in plasma from Days 1 and 10, whenever practical.

[2] = Percent free (unencapsulated) TXA in the formulation; type: physicochemical; conditions: formulations dosed in the rat PK study (Table 2)
Description: The present embodiments provide pharmaceutical formulations comprising multivesicular liposomes (MVLs) containing tranexamic acid (TXA) which minimize the side effects of TXA while maintaining or improving efficacy and lengthening the duration of the effect. The present embodiments also provide pharmaceutical formulations comprising TXA encapsulated in the MVLs and unencapsulated TXA. The term “unencapsulated” as used herein, means that the biologically active ingredient (e.g., tranexamic acid) is outside the MVL particles, for example, in the suspending solution. The unencapsulated TXA provides immediate efficacy of TXA while the use of TXA encapsulated MVLs formulations in the instant embodiments results in the release of TXA for an extended period. The processes of preparing the DEPO-TXAs and the methods of using the DEPO-TXA formulations for treating, ameliorating, or preventing blood loss are also disclosed herewith. […]
For the 40 mg/mL formulation, % PPV is about 50.0% and the assumed interstitial volume (mL) is about 20%, rendering about 62% free TXA outside of the multivesicular liposomes. […] During the first 12 h, the released TXA contributes to the initial TXA peak measured in the plasma. […]

## NC[C@H]1CC[C@H](C(=O)O)CC1 [TXA, tranexamic acid]
Beagle dog
  clinical signs following dosing: at a similar incidence and severity
[1]; 120 mg/kg dose level, Day 1
  mean peak exposures (Cmax) higher for the free TXA group than DepoTXA: 28%
[1]; 120 mg/kg dose level, Day 10, after fourth and final sc dose
  peak TXA levels lower for the free TXA group than DepoTXA: 14%
[1]; beagle dog, sc, FIGS. 5A, 5B
  administered TXA cleared after 12 hours (percent of total AUC): 94%
[1]; beagle dog, sc, FIGS. 6A, 6B
  time to exposure to nearly the full TXA dose: less than 24 hours
[1]; beagle, dog, plasma, sc, 120 mg/kg, beagle dog, sc, 120 mg/kg/dose, Day 1, read-out: AUC0-72
  AUC(0-t): 490 µg·h/mL
[1]; beagle, dog, plasma, sc, 120 mg/kg, beagle dog, sc, 120 mg/kg/dose, Day 1, read-out: Cmax
  Cmax: 140 µg/mL
[1]; beagle, dog, plasma, sc, 120 mg/kg, beagle dog, sc, 120 mg/kg/dose, Day 1, read-out: Tmax
  Tmax: 1.2 h
[1]; beagle, dog, plasma, sc, 120 mg/kg, beagle dog, sc, 120 mg/kg/dose, Day 1, read-out: t1/2 (converted)
  half-life: 25.7 h
[1]; beagle, dog, plasma, sc, 120 mg/kg, beagle dog, sc, 120 mg/kg/dose, Day 10, read-out: AUC0-72
  AUC(0-t): 484 µg·h/mL
[1]; beagle, dog, plasma, sc, 120 mg/kg, beagle dog, sc, 120 mg/kg/dose, Day 10, read-out: Cmax
  Cmax: 119 µg/mL
[1]; beagle, dog, plasma, sc, 120 mg/kg, beagle dog, sc, 120 mg/kg/dose, Day 10, read-out: Tmax
  Tmax: 1.1 h
[1]; beagle, dog, plasma, sc, 120 mg/kg, beagle dog, sc, 120 mg/kg/dose, Day 10, read-out: t1/2 (converted)
  half-life: 28.9 h
[1]; beagle, dog, plasma, sc, 120 mg/kg, mean±SD, sc, 120 mg/kg, Day 1, read-out: Mean terminal elimination half-life (t1/2elim) (converted)
  half-life: 25.7 ± 2 h
[1]; beagle, dog, plasma, sc, 120 mg/kg, mean±SD, sc, 120 mg/kg, Day 10, read-out: Mean terminal elimination half-life (t1/2elim) (converted)
  half-life: 28.9 ± 2.9 h
[1]; both sexes, beagle, dog, plasma, sc, 120 mg/kg, genders combined mean, sc, 120 mg/kg, Day 10, read-out: mean peak levels (Cmax)
  Cmax: 119 ± 15.4 µg/mL
[1]; both sexes, beagle, dog, plasma, sc, 120 mg/kg, mean±SD, n=10, genders combined, sc, 120 mg/kg, Day 1, read-out: AUC0-24
  AUC(0-t): 475 ± 35.1 µg·h/mL
[1]; both sexes, beagle, dog, plasma, sc, 120 mg/kg, mean±SD, n=10, genders combined, sc, 120 mg/kg, Day 1, read-out: AUC0-48
  AUC(0-t): 485 ± 36.1 µg·h/mL
[1]; both sexes, beagle, dog, plasma, sc, 120 mg/kg, mean±SD, n=10, genders combined, sc, 120 mg/kg, Day 1, read-out: AUC0-72
  AUC(0-t): 490 ± 36.5 µg·h/mL
[1]; both sexes, beagle, dog, plasma, sc, 120 mg/kg, mean±SD, n=10, genders combined, sc, 120 mg/kg, Day 1, read-out: Tmax (plasma concentrations of TXA peaked)
  Tmax: 1.2 ± 0.42 h
[1]; both sexes, beagle, dog, plasma, sc, 120 mg/kg, mean±SD, n=10, genders combined, sc, 120 mg/kg, Day 1, read-out: mean peak levels (Cmax)
  Cmax: 140 ± 19.2 µg/mL
[1]; both sexes, beagle, dog, plasma, sc, 120 mg/kg, mean±SD, n=10, genders combined, sc, 120 mg/kg, Day 10, read-out: AUC0-24
  AUC(0-t): 468 ± 42.5 µg·h/mL
[1]; both sexes, beagle, dog, plasma, sc, 120 mg/kg, mean±SD, n=10, genders combined, sc, 120 mg/kg, Day 10, read-out: AUC0-48
  AUC(0-t): 479 ± 44.2 µg·h/mL
[1]; both sexes, beagle, dog, plasma, sc, 120 mg/kg, mean±SD, n=10, genders combined, sc, 120 mg/kg, Day 10, read-out: AUC0-72
  AUC(0-t): 484 ± 45.2 µg·h/mL
[1]; both sexes, beagle, dog, plasma, sc, 120 mg/kg, mean±SD, n=10, genders combined, sc, 120 mg/kg, Day 10, read-out: Tmax (mean peak concentrations reached)
  Tmax: 1.1 ± 0.32 h
[1]; both sexes, beagle, dog, plasma, mean±SD, n=10, genders combined, sc, 120 mg/kg, Day 1
  AUC(0-inf): 495 ± 36.8 µg·h/mL
[2]
  Percent free TXA: 100%
